For data set [1] the following is noted: Crystal; DTA.
Data set [2] can be described thus: Molar enthalpy of transition or fusion. Particulars: Crystal; DSC.

The structures appear in SMILES notation. Numbers after ± are expanded uncertainties.

As to `COC(=O)C=Cc1ccc(O)c(OC)c1` [methyl 3-(4-hydroxy-3-methoxyphenyl)-2-propenoate], the Normal melting temperature in data set [1] came to 62.56 ± 0.5 °C. Moreover, the “Molar enthalpy of transition or fusion” value in data set [2] came out at 6.17 ± 0.179 kcal/mol.
With `COC(=O)/C=C/c1cc(OC)c(O)c(OC)c1` [3,5-dimethoxy-4-hydroxy cinnamic acid methyl ester], the Normal melting temperature in data set [1] was found to be 88.64 ± 0.5 °C. The “Molar enthalpy of transition or fusion” value in data set [2] was 7.14 ± 0.203 kcal/mol.
On to `COC(=O)C=Cc1ccc(O)cc1` [2-propenoic acid, 3-(4-hydroxyphenyl)-, methyl ester], for which, in data set [1], the Normal melting temperature is 137.56 ± 0.5 °C. For the same compound, the “Molar enthalpy of transition or fusion” value in data set [2] amounted to 7.22 ± 0.206 kcal/mol.
